In ChEMBL document CHEMBL5625277, “Systematical mutational analysis of teriparatide on anti-osteoporosis activity by alanine scanning” (Bioorg Med Chem Lett, 2024):

Assay: Cytotoxicity in pre-osteoblasts (unknown origin) assessed as cell death upto 5 uM by CCK8 assay
Assay type: toxicity, cell-based
Settings: pre-osteoblast

SMILES	Activity
CC[C@H](C)[C@H](NC(=O)[C@H](CCC(=O)O)NC(=O)[C@H](CO)NC(=O)[C@@H](NC(=O)[C@H](CO)NC(C)=O)C(C)C)C(=O)N[C@@H](CCC(N)=O)C(=O)N[C@@H](CC(C)C)C(=O)N[C@@H](CCSC)C(=O)N[C@@H](Cc1cnc[nH]1)C(=O)N[C@@H](CC(N)=O)C(=O)N[C@@H](CC(C)C)C(=O)NCC(=O)N[C@@H](CCCCN)C(=O)N[C@@H](Cc1cnc[nH]1)C(=O)N[C@@H](CC(C)C)C(=O)N[C@@H](CC(N)=O)C(=O)N[C@@H](CO)C(=O)N[C@@H](CCSC)C(=O)N[C@@H](CCC(=O)O)C(=O)N[C@@H](CCCNC(=N)N)C(=O)N[C@H](C(=O)N[C@@H](CCC(=O)O)C(=O)N[C@@H](Cc1c[nH]c2ccccc12)C(=O)N[C@@H](CC(C)C)C(=O)N[C@@H](CCCNC(=N)N)C(=O)N[C@@H](CCCCN)C(=O)N[C@@H](CCCCN)C(=O)N[C@@H](CC(C)C)C(=O)N[C@@H](CCC(N)=O)C(=O)N[C@@H](CC(=O)O)C(=O)N[C@H](C(=O)N[C@@H](Cc1cnc[nH]1)C(=O)N[C@@H](CC(N)=O)C(=O)N[C@@H](C)C(N)=O)C(C)C)C(C)C	Non-Toxic
CC[C@H](C)[C@H](NC(=O)[C@H](C)NC(=O)[C@H](CO)NC(=O)[C@@H](NC(=O)[C@H](CO)NC(C)=O)C(C)C)C(=O)N[C@@H](CCC(N)=O)C(=O)N[C@@H](CC(C)C)C(=O)N[C@@H](CCSC)C(=O)N[C@@H](Cc1cnc[nH]1)C(=O)N[C@@H](CC(N)=O)C(=O)N[C@@H](CC(C)C)C(=O)NCC(=O)N[C@@H](CCCCN)C(=O)N[C@@H](Cc1cnc[nH]1)C(=O)N[C@@H](CC(C)C)C(=O)N[C@@H](CC(N)=O)C(=O)N[C@@H](CO)C(=O)N[C@@H](CCSC)C(=O)N[C@@H](CCC(=O)O)C(=O)N[C@@H](CCCNC(=N)N)C(=O)N[C@H](C(=O)N[C@@H](CCC(=O)O)C(=O)N[C@@H](Cc1c[nH]c2ccccc12)C(=O)N[C@@H](CC(C)C)C(=O)N[C@@H](CCCNC(=N)N)C(=O)N[C@@H](CCCCN)C(=O)N[C@@H](CCCCN)C(=O)N[C@@H](CC(C)C)C(=O)N[C@@H](CCC(N)=O)C(=O)N[C@@H](CC(=O)O)C(=O)N[C@H](C(=O)N[C@@H](Cc1cnc[nH]1)C(=O)N[C@@H](CC(N)=O)C(=O)N[C@@H](Cc1ccccc1)C(N)=O)C(C)C)C(C)C	Non-Toxic
CC[C@H](C)[C@H](NC(=O)[C@H](CCC(=O)O)NC(=O)[C@H](CO)NC(=O)[C@@H](NC(=O)[C@H](CO)NC(C)=O)C(C)C)C(=O)N[C@@H](CCC(N)=O)C(=O)N[C@@H](CC(C)C)C(=O)N[C@@H](CCSC)C(=O)N[C@@H](Cc1cnc[nH]1)C(=O)N[C@@H](CC(N)=O)C(=O)N[C@@H](CC(C)C)C(=O)NCC(=O)N[C@@H](CCCCN)C(=O)N[C@@H](Cc1cnc[nH]1)C(=O)N[C@@H](CC(C)C)C(=O)N[C@@H](CC(N)=O)C(=O)N[C@@H](CO)C(=O)N[C@@H](CCSC)C(=O)N[C@@H](CCC(=O)O)C(=O)N[C@@H](CCCNC(=N)N)C(=O)N[C@H](C(=O)N[C@@H](CCC(=O)O)C(=O)N[C@@H](Cc1c[nH]c2ccccc12)C(=O)N[C@@H](CC(C)C)C(=O)N[C@@H](CCCNC(=N)N)C(=O)N[C@@H](CCCCN)C(=O)N[C@@H](CCCCN)C(=O)N[C@@H](CC(C)C)C(=O)N[C@@H](CCC(N)=O)C(=O)N[C@@H](CC(=O)O)C(=O)N[C@H](C(=O)N[C@@H](Cc1cnc[nH]1)C(=O)N[C@@H](CC(N)=O)C(=O)N[C@@H](Cc1ccccc1)C(N)=O)C(C)C)C(C)C	Non-Toxic
CC[C@H](C)[C@H](NC(=O)[C@H](CCC(=O)O)NC(=O)[C@H](CO)NC(=O)[C@@H](NC(=O)[C@H](CO)NC(C)=O)C(C)C)C(=O)N[C@@H](CCC(N)=O)C(=O)N[C@@H](CC(C)C)C(=O)N[C@@H](CCSC)C(=O)N[C@@H](C)C(=O)N[C@@H](CC(N)=O)C(=O)N[C@@H](CC(C)C)C(=O)NCC(=O)N[C@@H](CCCCN)C(=O)N[C@@H](Cc1cnc[nH]1)C(=O)N[C@@H](CC(C)C)C(=O)N[C@@H](CC(N)=O)C(=O)N[C@@H](CO)C(=O)N[C@@H](CCSC)C(=O)N[C@@H](CCC(=O)O)C(=O)N[C@@H](CCCNC(=N)N)C(=O)N[C@H](C(=O)N[C@@H](CCC(=O)O)C(=O)N[C@@H](Cc1c[nH]c2ccccc12)C(=O)N[C@@H](CC(C)C)C(=O)N[C@@H](CCCNC(=N)N)C(=O)N[C@@H](CCCCN)C(=O)N[C@@H](CCCCN)C(=O)N[C@@H](CC(C)C)C(=O)N[C@@H](CCC(N)=O)C(=O)N[C@@H](CC(=O)O)C(=O)N[C@H](C(=O)N[C@@H](Cc1cnc[nH]1)C(=O)N[C@@H](CC(N)=O)C(=O)N[C@@H](Cc1ccccc1)C(N)=O)C(C)C)C(C)C	Non-Toxic
CC[C@H](C)[C@H](NC(=O)[C@H](CCC(=O)O)NC(=O)[C@H](CO)NC(=O)[C@@H](NC(=O)[C@H](CO)NC(C)=O)C(C)C)C(=O)N[C@@H](CCC(N)=O)C(=O)N[C@@H](CC(C)C)C(=O)N[C@@H](CCSC)C(=O)N[C@@H](Cc1cnc[nH]1)C(=O)N[C@@H](CC(N)=O)C(=O)N[C@@H](CC(C)C)C(=O)NCC(=O)N[C@@H](CCCCN)C(=O)N[C@@H](Cc1cnc[nH]1)C(=O)N[C@@H](CC(C)C)C(=O)N[C@@H](CC(N)=O)C(=O)N[C@@H](CO)C(=O)N[C@@H](CCSC)C(=O)N[C@@H](CCC(=O)O)C(=O)N[C@@H](CCCNC(=N)N)C(=O)N[C@H](C(=O)N[C@@H](CCC(=O)O)C(=O)N[C@@H](Cc1c[nH]c2ccccc12)C(=O)N[C@@H](CC(C)C)C(=O)N[C@@H](C)C(=O)N[C@@H](CCCCN)C(=O)N[C@@H](CCCCN)C(=O)N[C@@H](CC(C)C)C(=O)N[C@@H](CCC(N)=O)C(=O)N[C@@H](CC(=O)O)C(=O)N[C@H](C(=O)N[C@@H](Cc1cnc[nH]1)C(=O)N[C@@H](CC(N)=O)C(=O)N[C@@H](Cc1ccccc1)C(N)=O)C(C)C)C(C)C	Non-Toxic
CC[C@H](C)[C@H](NC(=O)[C@H](CCC(=O)O)NC(=O)[C@H](CO)NC(=O)[C@@H](NC(=O)[C@H](CO)NC(C)=O)C(C)C)C(=O)N[C@@H](CCC(N)=O)C(=O)N[C@@H](CC(C)C)C(=O)N[C@@H](CCSC)C(=O)N[C@@H](Cc1cnc[nH]1)C(=O)N[C@@H](CC(N)=O)C(=O)N[C@@H](CC(C)C)C(=O)NCC(=O)N[C@@H](CCCCN)C(=O)N[C@@H](Cc1cnc[nH]1)C(=O)N[C@@H](CC(C)C)C(=O)N[C@@H](CC(N)=O)C(=O)N[C@@H](CO)C(=O)N[C@@H](CCSC)C(=O)N[C@@H](CCC(=O)O)C(=O)N[C@@H](CCCNC(=N)N)C(=O)N[C@H](C(=O)N[C@@H](CCC(=O)O)C(=O)N[C@@H](Cc1c[nH]c2ccccc12)C(=O)N[C@@H](CC(C)C)C(=O)N[C@@H](CCCNC(=N)N)C(=O)N[C@@H](CCCCN)C(=O)N[C@@H](CCCCN)C(=O)N[C@@H](CC(C)C)C(=O)N[C@@H](CCC(N)=O)C(=O)N[C@@H](CC(=O)O)C(=O)N[C@H](C(=O)N[C@@H](C)C(=O)N[C@@H](CC(N)=O)C(=O)N[C@@H](Cc1ccccc1)C(N)=O)C(C)C)C(C)C	Non-Toxic
CC[C@H](C)[C@H](NC(=O)[C@H](CCC(=O)O)NC(=O)[C@H](CO)NC(=O)[C@H](C)NC(=O)[C@H](CO)NC(C)=O)C(=O)N[C@@H](CCC(N)=O)C(=O)N[C@@H](CC(C)C)C(=O)N[C@@H](CCSC)C(=O)N[C@@H](Cc1cnc[nH]1)C(=O)N[C@@H](CC(N)=O)C(=O)N[C@@H](CC(C)C)C(=O)NCC(=O)N[C@@H](CCCCN)C(=O)N[C@@H](Cc1cnc[nH]1)C(=O)N[C@@H](CC(C)C)C(=O)N[C@@H](CC(N)=O)C(=O)N[C@@H](CO)C(=O)N[C@@H](CCSC)C(=O)N[C@@H](CCC(=O)O)C(=O)N[C@@H](CCCNC(=N)N)C(=O)N[C@H](C(=O)N[C@@H](CCC(=O)O)C(=O)N[C@@H](Cc1c[nH]c2ccccc12)C(=O)N[C@@H](CC(C)C)C(=O)N[C@@H](CCCNC(=N)N)C(=O)N[C@@H](CCCCN)C(=O)N[C@@H](CCCCN)C(=O)N[C@@H](CC(C)C)C(=O)N[C@@H](CCC(N)=O)C(=O)N[C@@H](CC(=O)O)C(=O)N[C@H](C(=O)N[C@@H](Cc1cnc[nH]1)C(=O)N[C@@H](CC(N)=O)C(=O)N[C@@H](Cc1ccccc1)C(N)=O)C(C)C)C(C)C	Non-Toxic
CC[C@H](C)[C@H](NC(=O)[C@H](CCC(=O)O)NC(=O)[C@H](CO)NC(=O)[C@@H](NC(=O)[C@H](CO)NC(C)=O)C(C)C)C(=O)N[C@@H](CCC(N)=O)C(=O)N[C@@H](CC(C)C)C(=O)N[C@@H](CCSC)C(=O)N[C@@H](Cc1cnc[nH]1)C(=O)N[C@@H](CC(N)=O)C(=O)N[C@@H](CC(C)C)C(=O)NCC(=O)N[C@@H](CCCCN)C(=O)N[C@@H](Cc1cnc[nH]1)C(=O)N[C@@H](CC(C)C)C(=O)N[C@@H](CC(N)=O)C(=O)N[C@@H](CO)C(=O)N[C@@H](CCSC)C(=O)N[C@@H](C)C(=O)N[C@@H](CCCNC(=N)N)C(=O)N[C@H](C(=O)N[C@@H](CCC(=O)O)C(=O)N[C@@H](Cc1c[nH]c2ccccc12)C(=O)N[C@@H](CC(C)C)C(=O)N[C@@H](CCCNC(=N)N)C(=O)N[C@@H](CCCCN)C(=O)N[C@@H](CCCCN)C(=O)N[C@@H](CC(C)C)C(=O)N[C@@H](CCC(N)=O)C(=O)N[C@@H](CC(=O)O)C(=O)N[C@H](C(=O)N[C@@H](Cc1cnc[nH]1)C(=O)N[C@@H](CC(N)=O)C(=O)N[C@@H](Cc1ccccc1)C(N)=O)C(C)C)C(C)C	Non-Toxic
CC[C@H](C)[C@H](NC(=O)[C@H](CCC(=O)O)NC(=O)[C@H](CO)NC(=O)[C@@H](NC(=O)[C@H](CO)NC(C)=O)C(C)C)C(=O)N[C@@H](CCC(N)=O)C(=O)N[C@@H](CC(C)C)C(=O)N[C@@H](CCSC)C(=O)N[C@@H](Cc1cnc[nH]1)C(=O)N[C@@H](CC(N)=O)C(=O)N[C@@H](CC(C)C)C(=O)NCC(=O)N[C@@H](CCCCN)C(=O)N[C@@H](Cc1cnc[nH]1)C(=O)N[C@@H](C)C(=O)N[C@@H](CC(N)=O)C(=O)N[C@@H](CO)C(=O)N[C@@H](CCSC)C(=O)N[C@@H](CCC(=O)O)C(=O)N[C@@H](CCCNC(=N)N)C(=O)N[C@H](C(=O)N[C@@H](CCC(=O)O)C(=O)N[C@@H](Cc1c[nH]c2ccccc12)C(=O)N[C@@H](CC(C)C)C(=O)N[C@@H](CCCNC(=N)N)C(=O)N[C@@H](CCCCN)C(=O)N[C@@H](CCCCN)C(=O)N[C@@H](CC(C)C)C(=O)N[C@@H](CCC(N)=O)C(=O)N[C@@H](CC(=O)O)C(=O)N[C@H](C(=O)N[C@@H](Cc1cnc[nH]1)C(=O)N[C@@H](CC(N)=O)C(=O)N[C@@H](Cc1ccccc1)C(N)=O)C(C)C)C(C)C	Non-Toxic
